What all share (assay): Kinase selectivity, scanMAX Kinase assay panel (DiscoverX), % control at 1 uM
Assay type in all cases: binding

Assay [1] concerns the target T1, scanMAX Kinase assay panel (Homo sapiens, UniProt Q13882).
T1 construct: purchased DiscoverX
As to conditions: BRK; 1 uM; read-out: Percent Control (%). The procedure, abridged: (§1)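 A single concentration of 1 uM, in DMSO, is applied across the kinase panel. Activity against an individual enzyme is assigned where % control is less than 35.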

The target in assay [2] is T2, scanMAX Kinase assay panel (Homo sapiens, UniProt Q9Y616).
T2 construct: purchased DiscoverX
T2 sequence (Q9Y616 1-596): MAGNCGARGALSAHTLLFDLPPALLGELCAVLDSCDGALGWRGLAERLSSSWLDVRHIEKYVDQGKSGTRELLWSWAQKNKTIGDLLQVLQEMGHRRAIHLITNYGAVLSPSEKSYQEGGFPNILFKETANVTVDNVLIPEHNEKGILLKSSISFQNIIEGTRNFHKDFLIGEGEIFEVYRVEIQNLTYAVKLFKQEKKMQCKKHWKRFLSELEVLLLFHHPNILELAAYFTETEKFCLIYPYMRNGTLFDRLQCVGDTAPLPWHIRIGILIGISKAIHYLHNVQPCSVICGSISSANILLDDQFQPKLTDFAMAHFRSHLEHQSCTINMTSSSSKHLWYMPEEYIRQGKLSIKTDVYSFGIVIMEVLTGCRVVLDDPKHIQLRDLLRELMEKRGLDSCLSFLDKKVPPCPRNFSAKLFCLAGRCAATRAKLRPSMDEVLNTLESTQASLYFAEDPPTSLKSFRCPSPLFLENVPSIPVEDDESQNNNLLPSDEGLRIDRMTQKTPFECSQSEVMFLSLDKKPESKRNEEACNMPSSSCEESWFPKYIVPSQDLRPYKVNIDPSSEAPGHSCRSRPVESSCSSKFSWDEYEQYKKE
As to conditions: IRAK3; 1 uM; read-out: Percent Control (%). The method in brief: as §1

The target of assay [3] is T3, scanMAX Kinase assay panel (Homo sapiens, UniProt Q8TDR2).
T3 construct: purchased DiscoverX
As to conditions: STK35; 1 uM; read-out: Percent Control (%). The procedure, abridged: as §1

Assay [4] concerns the target T4, scanMAX Kinase assay panel (Homo sapiens, UniProt Q8TBX8).
T4 construct: purchased DiscoverX
T4 sequence (Q8TBX8 1-421): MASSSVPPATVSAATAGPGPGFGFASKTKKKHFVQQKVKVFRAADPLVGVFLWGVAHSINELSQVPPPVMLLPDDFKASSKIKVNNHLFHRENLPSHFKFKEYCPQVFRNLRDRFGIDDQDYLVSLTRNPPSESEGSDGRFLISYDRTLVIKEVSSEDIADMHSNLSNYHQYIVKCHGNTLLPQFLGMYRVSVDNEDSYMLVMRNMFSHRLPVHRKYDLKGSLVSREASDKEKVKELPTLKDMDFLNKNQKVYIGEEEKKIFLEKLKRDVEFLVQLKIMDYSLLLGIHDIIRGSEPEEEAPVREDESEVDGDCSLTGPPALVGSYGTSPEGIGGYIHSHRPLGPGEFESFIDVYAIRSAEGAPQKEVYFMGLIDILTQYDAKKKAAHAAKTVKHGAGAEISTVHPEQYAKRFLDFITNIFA
As to conditions: PIP5K2C; 1 uM; read-out: Percent Control (%). The method in brief:
as §1

In assay [5] the target is T5, scanMAX Kinase assay panel (Homo sapiens, UniProt Q15349).
T5 construct: purchased DiscoverX
The note with it: 1 uM, read-out: Percent Control (%). The method in brief: as §1

The target of assay [6] is T6, scanMAX Kinase assay panel (Homo sapiens, UniProt Q8IVW4).
T6 construct: purchased DiscoverX
The note with it: CDKL3; 1 uM; read-out: Percent Control (%). The method in brief:
as §1

Assay [7] addresses T7, scanMAX Kinase assay panel (Homo sapiens, UniProt P20794).
T7 construct: purchased DiscoverX
T7 sequence (P20794 1-623): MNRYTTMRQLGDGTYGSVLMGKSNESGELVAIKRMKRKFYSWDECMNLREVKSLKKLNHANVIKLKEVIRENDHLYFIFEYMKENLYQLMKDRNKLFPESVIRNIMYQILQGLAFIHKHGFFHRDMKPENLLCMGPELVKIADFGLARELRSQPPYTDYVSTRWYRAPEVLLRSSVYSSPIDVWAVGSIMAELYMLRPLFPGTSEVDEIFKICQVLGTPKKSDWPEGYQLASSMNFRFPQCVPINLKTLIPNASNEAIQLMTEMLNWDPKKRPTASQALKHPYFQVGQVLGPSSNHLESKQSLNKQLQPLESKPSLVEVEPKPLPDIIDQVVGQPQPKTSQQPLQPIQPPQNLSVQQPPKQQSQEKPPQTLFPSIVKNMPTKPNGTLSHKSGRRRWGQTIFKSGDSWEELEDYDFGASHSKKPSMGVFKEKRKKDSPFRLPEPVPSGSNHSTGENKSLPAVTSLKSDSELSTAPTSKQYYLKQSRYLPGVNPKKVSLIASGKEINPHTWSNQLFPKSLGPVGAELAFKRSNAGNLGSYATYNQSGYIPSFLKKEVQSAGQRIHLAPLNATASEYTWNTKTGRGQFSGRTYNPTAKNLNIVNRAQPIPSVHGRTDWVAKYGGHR
The note with it: MAK; 1 uM; read-out: Percent Control (%). The method in brief:
as §1

Assay [8] addresses T8, scanMAX Kinase assay panel (Homo sapiens, UniProt P36897).
T8 construct: purchased DiscoverX
T8 sequence (P36897 34-503): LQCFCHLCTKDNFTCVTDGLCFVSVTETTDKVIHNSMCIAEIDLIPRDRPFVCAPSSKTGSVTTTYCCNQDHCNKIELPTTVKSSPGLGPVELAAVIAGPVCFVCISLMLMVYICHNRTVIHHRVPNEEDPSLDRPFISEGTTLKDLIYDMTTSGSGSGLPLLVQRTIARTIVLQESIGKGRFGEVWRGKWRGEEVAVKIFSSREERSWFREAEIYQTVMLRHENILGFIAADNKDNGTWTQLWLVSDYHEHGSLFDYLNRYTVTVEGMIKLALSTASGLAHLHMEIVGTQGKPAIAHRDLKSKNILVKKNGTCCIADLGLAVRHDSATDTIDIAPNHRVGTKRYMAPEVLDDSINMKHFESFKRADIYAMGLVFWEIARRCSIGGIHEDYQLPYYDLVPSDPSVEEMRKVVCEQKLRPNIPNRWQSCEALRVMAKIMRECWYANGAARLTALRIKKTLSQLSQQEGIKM
As to conditions: TGFBR1; 1 uM; read-out: Percent Control (%). The procedure, abridged:
as §1

Three molecules from patent US10870647B2, “Imidazopyridine derivative, method for preparing same, and pharmaceutical composition containing same as active ingredient for preventing or treating cancer” (DAEGU-GYEONGBUK MEDICAL INNOVATION FOUNDATION, priority 2016, dated 2020) can be followed below.

Like-named read-outs stand apart in the source and are kept apart here.

T1 sequence (Q13882 whole entry): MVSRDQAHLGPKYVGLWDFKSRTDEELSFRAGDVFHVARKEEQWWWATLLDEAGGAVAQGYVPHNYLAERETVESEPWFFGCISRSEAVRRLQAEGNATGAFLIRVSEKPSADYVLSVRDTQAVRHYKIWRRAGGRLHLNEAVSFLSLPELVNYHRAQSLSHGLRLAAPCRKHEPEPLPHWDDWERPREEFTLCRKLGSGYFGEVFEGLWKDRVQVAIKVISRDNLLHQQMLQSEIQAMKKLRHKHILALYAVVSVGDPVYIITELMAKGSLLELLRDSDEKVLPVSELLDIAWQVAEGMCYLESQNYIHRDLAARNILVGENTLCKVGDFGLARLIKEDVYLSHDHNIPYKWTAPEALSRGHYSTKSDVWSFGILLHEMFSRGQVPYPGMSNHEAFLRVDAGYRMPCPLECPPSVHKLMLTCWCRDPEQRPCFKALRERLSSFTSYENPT
T6 sequence (Q8IVW4 whole entry): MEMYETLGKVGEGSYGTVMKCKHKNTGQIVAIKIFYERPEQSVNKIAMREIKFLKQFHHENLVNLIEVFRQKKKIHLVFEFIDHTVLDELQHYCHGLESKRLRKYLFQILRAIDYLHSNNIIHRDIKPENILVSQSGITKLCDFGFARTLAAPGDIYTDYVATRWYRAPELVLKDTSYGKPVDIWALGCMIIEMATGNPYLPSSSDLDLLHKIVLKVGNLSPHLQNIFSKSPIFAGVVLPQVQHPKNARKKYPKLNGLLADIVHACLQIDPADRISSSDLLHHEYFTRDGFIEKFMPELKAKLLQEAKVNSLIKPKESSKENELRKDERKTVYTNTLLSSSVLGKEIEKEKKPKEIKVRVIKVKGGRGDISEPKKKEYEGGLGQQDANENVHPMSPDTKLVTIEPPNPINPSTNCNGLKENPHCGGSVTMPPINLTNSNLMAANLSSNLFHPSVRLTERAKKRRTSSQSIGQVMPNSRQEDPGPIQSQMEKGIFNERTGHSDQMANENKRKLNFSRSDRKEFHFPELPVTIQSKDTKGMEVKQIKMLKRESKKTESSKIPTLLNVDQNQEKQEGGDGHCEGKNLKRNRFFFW
T3 sequence (Q8TDR2 whole entry): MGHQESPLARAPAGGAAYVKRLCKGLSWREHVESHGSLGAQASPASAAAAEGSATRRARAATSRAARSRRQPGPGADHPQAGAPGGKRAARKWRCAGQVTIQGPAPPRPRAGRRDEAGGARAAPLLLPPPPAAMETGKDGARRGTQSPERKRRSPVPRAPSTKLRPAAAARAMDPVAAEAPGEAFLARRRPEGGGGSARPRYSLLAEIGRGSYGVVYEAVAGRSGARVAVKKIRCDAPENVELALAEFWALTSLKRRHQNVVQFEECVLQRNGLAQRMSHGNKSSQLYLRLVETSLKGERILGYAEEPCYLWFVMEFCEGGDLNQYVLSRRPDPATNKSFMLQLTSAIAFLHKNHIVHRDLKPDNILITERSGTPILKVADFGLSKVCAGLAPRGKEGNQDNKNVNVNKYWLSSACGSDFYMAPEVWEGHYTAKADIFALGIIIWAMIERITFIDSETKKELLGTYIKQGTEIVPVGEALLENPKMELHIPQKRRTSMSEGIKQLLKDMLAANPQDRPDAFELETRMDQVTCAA
T5 sequence (Q15349 whole entry): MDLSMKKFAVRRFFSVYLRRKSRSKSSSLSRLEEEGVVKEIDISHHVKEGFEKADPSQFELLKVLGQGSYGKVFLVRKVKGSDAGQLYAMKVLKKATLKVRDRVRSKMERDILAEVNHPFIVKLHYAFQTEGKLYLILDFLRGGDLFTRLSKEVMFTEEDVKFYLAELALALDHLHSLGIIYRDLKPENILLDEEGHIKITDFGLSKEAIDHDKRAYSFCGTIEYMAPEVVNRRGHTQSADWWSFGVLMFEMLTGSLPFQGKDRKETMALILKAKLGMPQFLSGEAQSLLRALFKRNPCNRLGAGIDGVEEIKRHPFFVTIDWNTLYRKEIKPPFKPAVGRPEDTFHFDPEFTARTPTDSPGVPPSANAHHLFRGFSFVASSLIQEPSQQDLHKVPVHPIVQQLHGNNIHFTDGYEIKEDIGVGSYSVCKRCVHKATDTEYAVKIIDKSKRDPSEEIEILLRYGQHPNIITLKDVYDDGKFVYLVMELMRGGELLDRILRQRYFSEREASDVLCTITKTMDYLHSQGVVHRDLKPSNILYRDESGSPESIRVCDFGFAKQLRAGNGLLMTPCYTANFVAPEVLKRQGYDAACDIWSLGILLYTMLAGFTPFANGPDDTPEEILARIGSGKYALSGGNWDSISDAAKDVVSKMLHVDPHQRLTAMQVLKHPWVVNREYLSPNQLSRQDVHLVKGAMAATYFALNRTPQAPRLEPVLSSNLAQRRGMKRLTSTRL

On to `Cc1ccc(C(=O)Nc2ccc(CN3CCN(C)CC3)c(C(F)(F)F)c2)cc1C#Cc1cnc2c(Nc3cnn(C)c3)cccn12` [Example 1, 4-methyl-3-((8-((1-methyl-1H-pyrazol-4-yl)amino)imidazo[1,2-a]pyridin-3-yl)ethynyl)-N-(4-((4-methylpiperazin-1-yl)methyl)-3-(trifluoromethyl)phenyl)benzamide], for which the remaining binding at 1 µM in assay [1] was 23%; in assay [2], 84%; in assay [3], 33%; in assay [4], 97%; in assay [5] (RSK3 (Kin.Dom.1-N-terminal)), 29%; in assay [5] (RSK3 (Kin.Dom.2-C-terminal)), 61%. For the same molecule, the remaining binding at 1 µM in assay [6] came to 1%; in assay [7], 10%; in assay [8] it was 85%.
Consider `Cc1ccc(NC(=O)C2(C(=O)Nc3ccc(F)cc3)CC2)cc1C#Cc1cnc2c(Nc3cnn(C(C)C)c3)cccn12` [Example 78], for which the remaining binding at 1 µM in assay [1] is 99%; in assay [2], 87%; in assay [3] it was 100%; in assay [4], 95%; in assay [5] (RSK3 (Kin.Dom.1-N-terminal)), 97%; in assay [5] (RSK3 (Kin.Dom.2-C-terminal)) it was 100%. Also, the remaining binding at 1 µM in assay [6], in assay [7] and in assay [8] was 100% in each case.
Turning to `Cc1cn(-c2cc(NC(=O)c3ccc(C)c(C#Cc4cnc5c(Nc6cnn(C)c6)cccn45)c3)cc(C(F)(F)F)c2)cn1` [Example 12, 4-methyl-N-(3-(4-methyl-1H-imidazol-1-yl)-5-(trifluoromethyl)phenyl)-3-((8-((1-methyl-1H-pyrazol-4-yl)amino)imidazo[1,2-a]pyridin-3-yl)ethynyl)benzamide], the remaining binding at 1 µM in assay [1] worked out at 68%; in assay [2], 72%; in assay [3], 58%; in assay [4], 73%; in assay [5] (RSK3 (Kin.Dom.1-N-terminal)) it was 65%; in assay [5] (RSK3 (Kin.Dom.2-C-terminal)), 86%. Further, the remaining binding at 1 µM in assay [6] was determined as 53%; in assay [7], 81%; in assay [8], 85%.
